In experiment [1] the target is T1, NS3 (Hepatitis C virus, UniProt A3EZJ3). Description: Inhibitory activity against NS3 protease complexed with NS4A cofactor peptide (NS3-4A pep). Also noted: species or system Hepacivirus hominis.
Experiment [2] concerns the target T2, Neutrophil elastase (Homo sapiens, UniProt P08246).
T2 sequence (P08246 whole entry): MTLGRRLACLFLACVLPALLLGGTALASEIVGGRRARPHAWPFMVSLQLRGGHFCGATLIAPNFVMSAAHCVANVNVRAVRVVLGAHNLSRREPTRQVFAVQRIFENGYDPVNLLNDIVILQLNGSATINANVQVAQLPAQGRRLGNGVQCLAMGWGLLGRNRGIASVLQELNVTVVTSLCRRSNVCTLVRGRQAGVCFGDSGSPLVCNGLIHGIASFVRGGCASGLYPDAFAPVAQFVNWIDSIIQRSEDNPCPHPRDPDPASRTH
Description: Compound was evaluated for its inhibitory activity against human leukocyte elastase (HLE).

The target in experiment [3] is Chymotrypsinogen B (Homo sapiens, UniProt P17538). Description: Compound was evaluated for its inhibitory activity against Chymotrypsinogen.
Chain of Chymotrypsinogen B (P17538 34-164 limits assumed, other chains not shown): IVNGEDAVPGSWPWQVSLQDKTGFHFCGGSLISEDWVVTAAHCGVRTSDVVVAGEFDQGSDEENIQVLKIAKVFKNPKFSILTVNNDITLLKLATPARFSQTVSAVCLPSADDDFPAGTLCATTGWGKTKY
Chain of Chymotrypsinogen B (P17538 167-263 limits assumed, other chains not shown): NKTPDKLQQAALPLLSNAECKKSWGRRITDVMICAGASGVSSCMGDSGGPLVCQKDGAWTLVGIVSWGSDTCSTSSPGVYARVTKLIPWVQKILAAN
The target in experiment [4] is Cathepsin B (Homo sapiens, UniProt P07858). Description: Compound was evaluated for its inhibitory activity against cathepsin B.
For experiment [5], the target named is T1, NS3. Description: Compound was evaluated for its binding affinity against NS3 protease complexed with NS4A cofactor peptide (NS3-4A pep). Also noted: species or system Hepacivirus hominis.

Starred links: 1 amine or outer side, 2 acyl side, 3 side chain; linkers in the order of their positions; H or OH if unused. Non-standard residues stand in square brackets, D forms with d. Residues, ends and D or L forms follow the SMILES beside them. *: point of attachment. X2 = O=C([C@@H]1C[C@@H](CCCc2ccccc2)CN1[*:1])[*:2]; X3 = O=C([C@@H]1C[C@@H](CCc2ccccc2)CN1[*:1])[*:2]; Pro(4R-Bn) = O=C(O)[C@@H]1C[C@@H](Cc2ccccc2)CN1; CH2(1-naphthyl) = c1ccc2c(C*)cccc2c1; mXylylene = c1cc(C[*:1])cc(C[*:2])c1; oXylylene = c1ccc(C[*:2])c(C[*:1])c1; Glutaryl = O=C(CCCC(=O)[*:2])[*:1]; Hyp = O=C(O)[C@@H]1C[C@@H](O)CN1; Chg = N[C@H](C(=O)O)C1CCCCC1; Nva = CCC[C@H](N)C(=O)O; X1 = c1ccc2cc(C*)ccc2c1; Ac3c = NC1(C(=O)O)CC1; Meb = Cc1ccc(C*)cc1; CF3 = FC(F)(F)*

A word on the IC50: it is the concentration that inhibits the measured activity by half. Read a high IC50 as weaker potency. In general, Ki refers to a measure of affinity in units of concentration, obtained from inhibition or displacement. A high value points to a looser hold on the target.

T1 sequence (A3EZJ3 whole entry): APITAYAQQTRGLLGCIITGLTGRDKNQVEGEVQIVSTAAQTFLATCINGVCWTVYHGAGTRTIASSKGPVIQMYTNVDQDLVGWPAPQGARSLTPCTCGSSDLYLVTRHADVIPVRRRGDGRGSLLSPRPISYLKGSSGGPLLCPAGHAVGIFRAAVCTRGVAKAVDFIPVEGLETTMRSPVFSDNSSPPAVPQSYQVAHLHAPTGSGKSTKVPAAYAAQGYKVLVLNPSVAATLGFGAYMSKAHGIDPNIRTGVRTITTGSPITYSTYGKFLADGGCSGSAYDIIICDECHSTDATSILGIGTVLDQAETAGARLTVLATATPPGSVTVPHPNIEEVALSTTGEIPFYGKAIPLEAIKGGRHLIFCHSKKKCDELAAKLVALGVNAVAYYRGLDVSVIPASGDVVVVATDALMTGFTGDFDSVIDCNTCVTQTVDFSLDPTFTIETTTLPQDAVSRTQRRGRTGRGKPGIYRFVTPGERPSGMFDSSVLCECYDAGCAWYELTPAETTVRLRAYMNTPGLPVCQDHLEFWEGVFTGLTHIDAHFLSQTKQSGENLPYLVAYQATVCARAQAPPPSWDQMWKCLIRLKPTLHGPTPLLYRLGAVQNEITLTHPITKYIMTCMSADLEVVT

In experiment [1], `CC[C@H](C)[C@H](NC(=O)[C@H](CC(=O)O)NC(=O)[C@H](CC(=O)O)NC(C)=O)C(=O)N[C@H](C(=O)N1CCC[C@H]1C(=O)NC1(C(=O)O)CC1)C(C)C` (Ac-DDIVP[Ac3c]-OH) yielded a half-maximal inhibitory concentration (IC50) of 54 µM.
Consider `CCC[C@H](NC(=O)[C@@H]1CCCN1C(=O)[C@@H](NC(=O)[C@@H](NC(=O)[C@H](CC(=O)O)NC(=O)[C@H](CC(=O)O)NC(C)=O)[C@@H](C)CC)C(C)C)C(=O)O` (Ac-DDIVP[Nva]-OH), for which the IC50 in experiment [1] is 150 µM.
Still for that read-out and setting: in the case of `CCC[C@H](NC(=O)[C@@H]1C[C@@H](OCc2cccc3ccccc23)CN1C(=O)[C@@H](NC(=O)[C@@H](NC(=O)[C@H](CC(=O)O)NC(=O)[C@H](CC(=O)O)NC(C)=O)[C@@H](C)CC)C(C)C)C(=O)O` (Ac-DDIV[Hyp](CH2(1-naphthyl))[Nva]-OH) it was 0.39 µM; in that of `CCC[C@H](NC(=O)[C@@H]1C[C@@H](OCc2ccc(C)cc2)CN1C(=O)[C@@H](NC(=O)[C@@H](NC(=O)[C@H](CC(=O)O)NC(=O)[C@H](CC(=O)O)NC(C)=O)[C@@H](C)CC)C(C)C)C(=O)O` (Ac-DDIV[Hyp](Meb)[Nva]-OH), 2.5 µM.
In experiment [1], `CCC[C@H](NC(=O)[C@@H]1C[C@@H](OCc2ccc3ccccc3c2)CN1C(=O)[C@@H](NC(=O)[C@@H](NC(=O)[C@H](CC(=O)O)NC(=O)[C@H](CC(=O)O)NC(C)=O)[C@@H](C)CC)C(C)C)C(=O)O` (Ac-DDIV[Hyp](X1)[Nva]-OH) gave an IC50 of 0.71 µM.
Still for that read-out and setting: in the case of `CCC[C@H](NC(=O)[C@@H]1C[C@@H](OCc2cccc(C)c2)CN1C(=O)[C@@H](NC(=O)[C@@H](NC(=O)[C@H](CC(=O)O)NC(=O)[C@H](CC(=O)O)NC(C)=O)[C@@H](C)CC)C(C)C)C(=O)O` (Ac-DDIV[Hyp](mXylylene)[Nva]-OH) it was 3.5 µM; in that of `CCC[C@H](NC(=O)[C@@H]1C[C@@H](OCc2ccccc2C)CN1C(=O)[C@@H](NC(=O)[C@@H](NC(=O)[C@H](CC(=O)O)NC(=O)[C@H](CC(=O)O)NC(C)=O)[C@@H](C)CC)C(C)C)C(=O)O` (Ac-DDIV[Hyp](oXylylene)[Nva]-OH), 6.8 µM; in that of `CCC[C@H](NC(=O)[C@@H]1C[C@@H](O)CN1C(=O)[C@@H](NC(=O)[C@@H](NC(=O)[C@H](CC(=O)O)NC(=O)[C@H](CC(=O)O)NC(C)=O)[C@@H](C)CC)C(C)C)C(=O)O` (Ac-DDIV[Hyp][Nva]-OH), 93 µM.
Same read-out and setting: in the case of `CCC[C@H](NC(=O)[C@@H]1C[C@@H](Cc2ccccc2)CN1C(=O)[C@@H](NC(=O)[C@@H](NC(=O)[C@H](CC(=O)O)NC(=O)[C@H](CC(=O)O)NC(C)=O)[C@@H](C)CC)C(C)C)C(=O)O` (Ac-DDIV[Pro(4R-Bn)][Nva]-OH) it was 60 µM.
On the same count and under the same terms, in the case of `CCC[C@H](NC(=O)[C@@H]1C[C@@H](CCCc2ccccc2)CN1C(=O)[C@@H](NC(=O)[C@@H](NC(=O)[C@H](CC(=O)O)NC(=O)[C@H](CC(=O)O)NC(C)=O)[C@@H](C)CC)C(C)C)C(=O)O` (Ac-DDIV[X2][Nva]-OH) it was 3.3 µM; in that of `CCC[C@H](NC(=O)[C@@H]1C[C@@H](CCc2ccccc2)CN1C(=O)[C@@H](NC(=O)[C@@H](NC(=O)[C@H](CC(=O)O)NC(=O)[C@H](CC(=O)O)NC(C)=O)[C@@H](C)CC)C(C)C)C(=O)O` (Ac-DDIV[X3][Nva]-OH), 10 µM; in that of `CCC[C@H](NC(=O)[C@@H]1CCCN1C(=O)[C@@H](NC(=O)[C@@H](NC(=O)[C@@H](CC(=O)O)NC(=O)[C@H](CC(=O)O)NC(C)=O)[C@@H](C)CC)C(C)C)C(=O)C(F)(F)F` (Ac-D[dD]IVP[Nva]-CF3), 22 µM.
With `CCC[C@H](NC(=O)[C@@H]1CCCN1C(=O)[C@@H](NC(=O)[C@@H](NC(=O)[C@@H](CC(=O)O)NC(=O)[C@H](CC(=O)O)NC(C)=O)[C@@H](C)CC)C(C)C)C(=O)O` (Ac-D[dD]IVP[Nva]-OH), the half-maximal inhibitory concentration (IC50) in experiment [1] stood at 17 µM.
On the same count and under the same terms, in the case of `CCC[C@H](NC(=O)[C@@H]1CCCN1C(=O)[C@@H](NC(=O)[C@@H](NC(=O)[C@@H](CCC(=O)O)NC(=O)[C@H](CC(=O)O)NC(C)=O)[C@@H](C)CC)C(C)C)C(=O)O` (Ac-D[dE]IVP[Nva]-OH) it was 7.5 µM; in that of `CC(=O)N[C@@H](CC(=O)O)C(=O)N[C@H](CCC(=O)O)C(=O)N[C@H](C(=O)N[C@H](C(=O)N1C[C@H](OCc2cccc3ccccc23)C[C@H]1C(=O)NC1(C(=O)O)CC1)C(C)C)C1CCCCC1` (Ac-D[dE][Chg]V[Hyp](CH2(1-naphthyl))[Ac3c]-OH), 0.013 µM.
For `CCC[C@H](NC(=O)[C@@H]1C[C@@H](OCc2ccc3ccccc3c2)CN1C(=O)[C@@H](NC(=O)[C@@H](NC(=O)[C@@H](CCC(=O)O)NC(=O)[C@H](CC(=O)O)NC(C)=O)C1CCCCC1)C(C)C)C(=O)O` (Ac-D[dE][Chg]V[Hyp](X1)[Nva]-OH), the half-maximal inhibitory concentration (IC50) in experiment [1] was 0.027 µM; in experiment [2], > 300 µM; in experiment [3], > 300 µM; in experiment [4] it was > 300 µM. Moreover, the inhibition constant Ki in experiment [5] came to 0.003 µM.
As for `CC(=O)N[C@H](C(=O)N[C@H](C(=O)N1C[C@H](OCc2cccc3ccccc23)C[C@H]1C(=O)NC1(C(=O)O)CC1)C(C)C)C1CCCCC1` (Ac-[Chg]V[Hyp](CH2(1-naphthyl))[Ac3c]-OH), the IC50 was 3.5 µM in experiment [1] and > 600 µM in experiment [2].
For `CC(C)[C@H](NC(=O)[C@@H](NC(=O)CCCC(=O)O)C1CCCCC1)C(=O)N1C[C@H](OCc2cccc3ccccc23)C[C@H]1C(=O)NC1(C(=O)O)CC1` (Glutaryl-[Chg]V[Hyp](CH2(1-naphthyl))[Ac3c]-OH), the concentration for half-maximal inhibition (IC50) in experiment [1] was found to be 0.9 µM.
